Source: the kinase profiling compilation of Christmann-Franck et al. (2016)

How the values were obtained:
Experiment in all cases: radiometric filter-binding kinase assay
RPS6KA5 KD1 KD2 (human) = RPS6KA5 KD1 KD2 (human) (UniProt O75582); conditions: ATP 100 µM
TBK1 (human) = TBK1 (human) (UniProt Q9UHD2); conditions: ATP 50 µM
PRKCA (human) = PRKCA (human) (UniProt P17252); conditions: ATP 20 µM
MAPKAPK2 (human) = MAPKAPK2 (human) (UniProt P49137); conditions: ATP 20 µM
MAPK15 (human) = MAPK15 (human) (UniProt Q8TD08); conditions: ATP 5 µM
PKN2 (human) = PKN2 (human) (UniProt Q16513); conditions: ATP 5 µM
RPS6KB2 (human) = RPS6KB2 (human) (UniProt Q9UBS0); conditions: ATP 100 µM
LCK (mouse) = conditions: ATP 50 µM, accession and sequence are those of the human protein
MARK3 (human) = MARK3 (human) (UniProt P27448); conditions: ATP 5 µM
PIM1 (human) = PIM1 (human) (UniProt P11309); conditions: ATP 20 µM
PI4KB (human) = PI4KB (human) (UniProt Q9UBF8)
[1] = system: AKT1 (human), P31749 [S473D]; conditions: ATP 5 µM
STK3 (human) = STK3 (human) (UniProt Q13188); conditions: ATP 20 µM
CaMK1 (human) = CaMK1 (human) (UniProt Q14012); conditions: ATP 50 µM
EPHB3 (human) = EPHB3 (human) (UniProt P54753); conditions: ATP 20 µM
INSR (human) = INSR (human) (UniProt P06213); conditions: ATP 20 µM
[2] = system: RPS6KB1 (human), P23443 [T412E]; conditions: ATP 100 µM
GSK3B (human) = GSK3B (human) (UniProt P49841); conditions: ATP 5 µM
PAK7 (human) = PAK7 (human) (UniProt Q9P286); conditions: ATP 20 µM
IKBKB (human) = IKBKB (human) (UniProt O14920); conditions: ATP 5 µM
MYLK (human) = MYLK (human) (UniProt Q15746); conditions: ATP 50 µM
SRC (human) = SRC (human) (UniProt P12931); conditions: ATP 50 µM
[3] = system: AKT2 (human), P31751 [S474D]; conditions: ATP 50 µM
MST4 (human) = MST4 (human) (UniProt Q9P289); conditions: ATP 20 µM
MAPKAPK5 (human) = MAPKAPK5 (human) (UniProt Q8IW41); conditions: ATP 20 µM
CSNK2A1 (human) = CSNK2A1 (human) (UniProt P68400); conditions: ATP 5 µM
SRPK1 (human) = SRPK1 (human) (UniProt Q96SB4); conditions: ATP 50 µM
CHEK1 (human) = CHEK1 (human) (UniProt O14757); conditions: ATP 20 µM
PRKACA (human) = PRKACA (human) (UniProt P17612); conditions: ATP 20 µM

Chain of RPS6KA5 KD1 KD2 (human) (O75582 whole entry, looked up): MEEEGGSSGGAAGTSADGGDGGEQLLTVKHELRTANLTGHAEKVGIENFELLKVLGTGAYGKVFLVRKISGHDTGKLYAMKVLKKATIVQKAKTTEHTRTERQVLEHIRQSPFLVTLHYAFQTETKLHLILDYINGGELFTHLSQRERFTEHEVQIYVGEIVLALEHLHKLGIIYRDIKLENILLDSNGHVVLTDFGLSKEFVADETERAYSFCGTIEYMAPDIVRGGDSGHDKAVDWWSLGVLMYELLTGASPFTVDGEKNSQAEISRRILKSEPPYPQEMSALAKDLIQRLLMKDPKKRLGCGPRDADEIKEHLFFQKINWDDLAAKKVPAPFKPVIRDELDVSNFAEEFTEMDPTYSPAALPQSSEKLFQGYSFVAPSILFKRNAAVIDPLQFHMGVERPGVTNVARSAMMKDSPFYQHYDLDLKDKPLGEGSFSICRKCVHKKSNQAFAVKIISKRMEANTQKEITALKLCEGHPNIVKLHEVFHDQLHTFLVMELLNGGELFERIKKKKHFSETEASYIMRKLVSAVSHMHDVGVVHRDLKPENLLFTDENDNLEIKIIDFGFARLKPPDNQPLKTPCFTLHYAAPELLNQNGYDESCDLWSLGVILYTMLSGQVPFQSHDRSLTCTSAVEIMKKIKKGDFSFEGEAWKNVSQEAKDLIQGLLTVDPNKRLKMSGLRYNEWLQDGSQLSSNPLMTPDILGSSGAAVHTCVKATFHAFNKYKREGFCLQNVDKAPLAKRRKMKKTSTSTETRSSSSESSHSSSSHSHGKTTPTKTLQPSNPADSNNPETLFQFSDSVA
Chain of CSNK2A1 (human) (P68400 whole entry, looked up): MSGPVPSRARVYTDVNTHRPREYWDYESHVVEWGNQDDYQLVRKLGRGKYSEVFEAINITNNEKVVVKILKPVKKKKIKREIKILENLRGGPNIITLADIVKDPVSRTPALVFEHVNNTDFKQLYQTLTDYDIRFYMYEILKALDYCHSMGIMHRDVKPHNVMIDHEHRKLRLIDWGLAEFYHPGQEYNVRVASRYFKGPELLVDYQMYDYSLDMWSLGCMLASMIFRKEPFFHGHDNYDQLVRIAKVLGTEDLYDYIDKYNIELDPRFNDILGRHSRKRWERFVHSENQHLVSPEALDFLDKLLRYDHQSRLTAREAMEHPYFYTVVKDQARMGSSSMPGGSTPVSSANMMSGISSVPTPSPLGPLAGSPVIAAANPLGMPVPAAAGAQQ
Chain of CaMK1 (human) (Q14012 whole entry, looked up): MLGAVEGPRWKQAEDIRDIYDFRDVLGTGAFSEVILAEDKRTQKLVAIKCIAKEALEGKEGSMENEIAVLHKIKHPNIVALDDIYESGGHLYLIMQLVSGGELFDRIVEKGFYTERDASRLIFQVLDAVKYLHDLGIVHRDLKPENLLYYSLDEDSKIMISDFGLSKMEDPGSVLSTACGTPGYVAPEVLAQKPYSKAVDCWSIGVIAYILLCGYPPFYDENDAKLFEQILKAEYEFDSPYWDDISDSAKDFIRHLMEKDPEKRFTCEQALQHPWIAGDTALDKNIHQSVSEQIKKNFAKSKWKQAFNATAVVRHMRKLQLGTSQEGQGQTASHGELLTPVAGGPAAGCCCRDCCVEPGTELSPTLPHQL
Chain of SRPK1 (human) (Q96SB4 whole entry, looked up): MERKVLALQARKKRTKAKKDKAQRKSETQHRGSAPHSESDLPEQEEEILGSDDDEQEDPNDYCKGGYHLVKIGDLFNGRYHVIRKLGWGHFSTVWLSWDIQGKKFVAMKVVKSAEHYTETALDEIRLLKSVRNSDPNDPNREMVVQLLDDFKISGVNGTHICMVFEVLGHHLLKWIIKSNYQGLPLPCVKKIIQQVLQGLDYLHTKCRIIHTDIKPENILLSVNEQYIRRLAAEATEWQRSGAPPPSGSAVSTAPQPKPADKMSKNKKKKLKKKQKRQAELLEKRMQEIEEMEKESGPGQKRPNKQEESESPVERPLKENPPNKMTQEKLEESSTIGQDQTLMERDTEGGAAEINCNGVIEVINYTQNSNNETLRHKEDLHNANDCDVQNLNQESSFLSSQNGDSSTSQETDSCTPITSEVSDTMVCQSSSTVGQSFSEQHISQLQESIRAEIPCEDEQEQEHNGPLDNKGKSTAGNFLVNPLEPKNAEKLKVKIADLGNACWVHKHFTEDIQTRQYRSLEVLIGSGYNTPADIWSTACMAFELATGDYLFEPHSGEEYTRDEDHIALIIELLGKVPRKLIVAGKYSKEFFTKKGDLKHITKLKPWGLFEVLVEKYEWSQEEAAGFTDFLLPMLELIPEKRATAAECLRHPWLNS
Chain of MST4 (human) (Q9P289 whole entry, looked up): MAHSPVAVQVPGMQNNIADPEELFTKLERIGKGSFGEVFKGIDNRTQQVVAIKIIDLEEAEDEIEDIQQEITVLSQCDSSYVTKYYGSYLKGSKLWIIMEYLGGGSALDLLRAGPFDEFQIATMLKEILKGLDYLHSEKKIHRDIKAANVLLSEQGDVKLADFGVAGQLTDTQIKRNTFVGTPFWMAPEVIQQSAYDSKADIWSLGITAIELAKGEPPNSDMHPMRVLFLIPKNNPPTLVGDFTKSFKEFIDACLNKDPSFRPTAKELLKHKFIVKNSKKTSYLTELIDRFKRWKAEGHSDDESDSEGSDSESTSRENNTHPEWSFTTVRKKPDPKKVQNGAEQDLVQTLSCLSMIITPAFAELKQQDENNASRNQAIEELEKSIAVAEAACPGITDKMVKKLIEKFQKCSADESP
Chain of TBK1 (human) (Q9UHD2 whole entry, looked up): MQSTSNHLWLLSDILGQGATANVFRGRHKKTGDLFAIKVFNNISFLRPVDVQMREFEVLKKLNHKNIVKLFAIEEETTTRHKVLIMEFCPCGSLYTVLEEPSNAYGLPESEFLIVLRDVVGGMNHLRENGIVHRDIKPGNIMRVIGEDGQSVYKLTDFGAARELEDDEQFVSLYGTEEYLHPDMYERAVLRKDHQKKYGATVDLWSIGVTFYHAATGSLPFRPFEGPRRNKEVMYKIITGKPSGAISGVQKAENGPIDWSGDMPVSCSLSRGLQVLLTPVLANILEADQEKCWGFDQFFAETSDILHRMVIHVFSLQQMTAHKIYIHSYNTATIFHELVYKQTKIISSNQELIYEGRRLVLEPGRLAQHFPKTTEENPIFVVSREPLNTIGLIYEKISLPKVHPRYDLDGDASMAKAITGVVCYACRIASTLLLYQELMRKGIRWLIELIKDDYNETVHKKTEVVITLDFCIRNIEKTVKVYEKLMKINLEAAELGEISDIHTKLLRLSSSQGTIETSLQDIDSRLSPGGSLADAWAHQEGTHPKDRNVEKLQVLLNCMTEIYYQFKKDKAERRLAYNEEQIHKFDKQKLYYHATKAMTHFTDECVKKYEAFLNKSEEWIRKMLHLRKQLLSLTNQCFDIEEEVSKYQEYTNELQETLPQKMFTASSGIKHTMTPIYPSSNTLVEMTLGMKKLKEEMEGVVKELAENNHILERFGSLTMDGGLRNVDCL
Chain of PIM1 (human) (P11309 whole entry, looked up): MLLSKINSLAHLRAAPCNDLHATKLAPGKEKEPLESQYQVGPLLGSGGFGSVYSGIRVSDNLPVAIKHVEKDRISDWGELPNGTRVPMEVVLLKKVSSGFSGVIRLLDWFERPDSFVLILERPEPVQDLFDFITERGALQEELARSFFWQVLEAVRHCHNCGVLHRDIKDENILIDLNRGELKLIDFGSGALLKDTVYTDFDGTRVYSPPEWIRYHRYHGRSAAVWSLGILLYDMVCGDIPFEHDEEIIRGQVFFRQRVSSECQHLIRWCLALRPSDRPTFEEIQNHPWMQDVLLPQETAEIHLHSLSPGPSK
Chain of MAPKAPK5 (human) (Q8IW41 whole entry, looked up): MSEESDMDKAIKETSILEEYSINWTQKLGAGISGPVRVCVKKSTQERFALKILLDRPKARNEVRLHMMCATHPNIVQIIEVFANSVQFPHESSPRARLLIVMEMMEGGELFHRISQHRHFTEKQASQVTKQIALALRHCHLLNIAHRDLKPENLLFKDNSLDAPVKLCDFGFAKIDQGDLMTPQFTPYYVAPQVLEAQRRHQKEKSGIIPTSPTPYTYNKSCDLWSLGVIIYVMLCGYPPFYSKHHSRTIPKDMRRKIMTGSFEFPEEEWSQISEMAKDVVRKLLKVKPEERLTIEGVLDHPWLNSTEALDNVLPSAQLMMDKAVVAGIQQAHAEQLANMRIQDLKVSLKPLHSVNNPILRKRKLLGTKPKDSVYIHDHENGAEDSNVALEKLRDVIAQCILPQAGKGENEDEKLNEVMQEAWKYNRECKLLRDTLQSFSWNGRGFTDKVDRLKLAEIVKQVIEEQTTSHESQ
Chain of STK3 (human) (Q13188 whole entry, looked up): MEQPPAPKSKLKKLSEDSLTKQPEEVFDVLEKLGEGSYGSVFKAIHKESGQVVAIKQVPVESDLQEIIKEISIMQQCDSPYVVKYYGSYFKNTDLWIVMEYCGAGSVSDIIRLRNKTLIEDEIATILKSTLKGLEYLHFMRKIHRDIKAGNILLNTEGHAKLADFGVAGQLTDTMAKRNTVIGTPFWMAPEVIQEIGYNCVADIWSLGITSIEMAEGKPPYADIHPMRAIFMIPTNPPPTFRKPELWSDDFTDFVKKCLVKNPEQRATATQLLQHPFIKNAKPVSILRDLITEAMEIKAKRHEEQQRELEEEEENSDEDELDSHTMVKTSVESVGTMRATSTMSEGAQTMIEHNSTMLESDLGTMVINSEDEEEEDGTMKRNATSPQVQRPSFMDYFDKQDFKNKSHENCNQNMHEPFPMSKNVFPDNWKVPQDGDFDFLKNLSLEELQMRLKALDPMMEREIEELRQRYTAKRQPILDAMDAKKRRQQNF

- IC50 (RPS6KA5 KD1 KD2 (human)): 0.95 µM
- residual activity (RPS6KA5 KD1 KD2 (human); compound 0.1 µM): 80%
- residual activity (RPS6KA5 KD1 KD2 (human); compound 1.0 µM): 42%
- residual activity (RPS6KA5 KD1 KD2 (human); compound 10.0 µM): 14%
- residual activity (TBK1 (human); compound 0.1 µM): 100%
- residual activity (TBK1 (human); compound 1.0 µM): 89%
- residual activity (TBK1 (human); compound 10.0 µM): 93%
- residual activity (PRKCA (human); compound 0.1 µM): 119%
- residual activity (PRKCA (human); compound 1.0 µM): 106%
- residual activity (PRKCA (human); compound 10.0 µM): 62%
- residual activity (MAPKAPK2 (human); compound 0.1 µM): 88%
- residual activity (MAPKAPK2 (human); compound 1.0 µM): 105%
- residual activity (MAPKAPK2 (human); compound 10.0 µM): 78%
- residual activity (PKN2 (human); compound 0.1 µM): 95%
- residual activity (PKN2 (human); compound 1.0 µM): 86%
- residual activity (PKN2 (human); compound 10.0 µM): 84%
- IC50 (RPS6KB2 (human)): 65 µM
- residual activity (LCK (mouse); compound 0.1 µM): 91%
- residual activity (LCK (mouse); compound 1.0 µM): 92%
- residual activity (LCK (mouse); compound 10.0 µM): 88%
- residual activity (MARK3 (human); compound 0.1 µM): 94%
- residual activity (MARK3 (human); compound 1.0 µM): 83%
- residual activity (MARK3 (human); compound 10.0 µM): 82%
- residual activity (PIM1 (human); compound 0.1 µM): 88%
- residual activity (PIM1 (human); compound 1.0 µM): 90%
- residual activity (PIM1 (human); compound 10.0 µM): 78%
- residual activity (PI4KB (human); compound 1.0 µM): 103%
- residual activity (PI4KB (human); compound 10.0 µM): 99%
- residual activity ([1]; compound 0.1 µM): 87%
- residual activity ([1]; compound 1.0 µM): 69%
- residual activity ([1]; compound 10.0 µM): 52%
- residual activity (STK3 (human); compound 0.1 µM): 95%
- residual activity (STK3 (human); compound 1.0 µM): 85%
- residual activity (STK3 (human); compound 10.0 µM): 77%
- residual activity (CaMK1 (human); compound 0.1 µM): 106%
- residual activity (CaMK1 (human); compound 1.0 µM): 94%
- residual activity (CaMK1 (human); compound 10.0 µM): 78%
- residual activity (EPHB3 (human); compound 0.1 µM): 132%
- residual activity (EPHB3 (human); compound 1.0 µM): 139%
- residual activity (EPHB3 (human); compound 10.0 µM): 101%
- residual activity (INSR (human); compound 0.1 µM): 108%
- residual activity (INSR (human); compound 1.0 µM): 95%
- residual activity (INSR (human); compound 10.0 µM): 96%
- residual activity ([2]; compound 0.1 µM): 58%
- residual activity ([2]; compound 1.0 µM): 23%
- residual activity ([2]; compound 10.0 µM): 7%
- residual activity (GSK3B (human); compound 0.1 µM): 87%
- residual activity (GSK3B (human); compound 1.0 µM): 96%
- residual activity (GSK3B (human); compound 10.0 µM): 92%
- residual activity (PAK7 (human); compound 0.1 µM): 100%
- residual activity (PAK7 (human); compound 1.0 µM): 88%
- residual activity (PAK7 (human); compound 10.0 µM): 87%
- residual activity (IKBKB (human); compound 0.1 µM): 195%
- residual activity (IKBKB (human); compound 1.0 µM): 230%
- residual activity (IKBKB (human); compound 10.0 µM): 192%
- residual activity (MYLK (human); compound 0.1 µM): 95%
- residual activity (MYLK (human); compound 1.0 µM): 79%
- residual activity (MYLK (human); compound 10.0 µM): 87%
- residual activity (SRC (human); compound 0.1 µM): 103%
- residual activity (SRC (human); compound 1.0 µM): 99%
- residual activity (SRC (human); compound 10.0 µM): 92%
- residual activity ([3]; compound 0.1 µM): 74%
- residual activity ([3]; compound 1.0 µM): 73%
- residual activity ([3]; compound 10.0 µM): 60%
- residual activity (MST4 (human); compound 0.1 µM): 87%
- residual activity (MST4 (human); compound 1.0 µM): 77%
- residual activity (MST4 (human); compound 10.0 µM): 46%
- residual activity (MAPKAPK5 (human); compound 0.1 µM): 114%
- residual activity (MAPKAPK5 (human); compound 1.0 µM): 97%
- residual activity (MAPKAPK5 (human); compound 10.0 µM): 87%
- residual activity (CSNK2A1 (human); compound 0.1 µM): 96%
- residual activity (CSNK2A1 (human); compound 1.0 µM): 92%
- residual activity (CSNK2A1 (human); compound 10.0 µM): 83%
- residual activity (SRPK1 (human); compound 0.1 µM): 108%
- residual activity (SRPK1 (human); compound 1.0 µM): 106%
- residual activity (SRPK1 (human); compound 10.0 µM): 101%
- residual activity (CHEK1 (human); compound 0.1 µM): 90%
- residual activity (CHEK1 (human); compound 1.0 µM): 83%
- residual activity (CHEK1 (human); compound 10.0 µM): 83%
- residual activity (PRKACA (human); compound 0.1 µM): 84%
- residual activity (PRKACA (human); compound 1.0 µM): 83%
- residual activity (PRKACA (human); compound 10.0 µM): 34%
SMILES: CCc1cncnc1N1CCN(Cc2nc3cc(C(F)(F)F)ccc3[nH]2)CC1
- residual activity (MAPK15 (human); compound 0.1 µM): 85%
- residual activity (MAPK15 (human); compound 1.0 µM): 83%
- residual activity (MAPK15 (human); compound 10.0 µM): 71%
